Tests used:
Conditions in all cases: treatment time: 5 days
H1373 = tested on: H1373
Procedure: (§1)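 CCK-8 viability of KRAS G12C-mutant cancer cell lines transfected with control, YAP/TAZ or TEAD1-4 siRNAs and treated with KRAS G12C inhibitors for 5 days; IC50 fitted in Prism after normalising absorbance at 450 nm to vehicle control.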

H1792 = tested on: H1792
Procedure: as §1

H2030 = tested on: H2030
Procedure: as §1

H358 = tested on: H358
Procedure: as §1

KYSE410 = tested on: KYSE410
Procedure: as §1

MIAPACA2 = tested on: MIAPACA2
Procedure: as §1

SW1573 [1] = tested on: SW1573
Procedure: as §1

SW1573 [2] = test: relative viability (fraction of vehicle control); higher = more viable / less inhibited
Procedure: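 CCK-8 viability of SW1573 cells transfected with control, YAP/TAZ or TEAD1-4 siRNAs and treated with KRAS G12C inhibitors for 5 days. Values are normalised to vehicle control.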

C=CC(=O)N1CCN(c2ncnc3c(F)c(-c4c(O)cccc4F)c(Cl)cc23)CC1 [ARS1620]
Conditions | IC50 (cell viability, 5 days) [µM] | relative viability
H358, siRNA knockdown (Con = control): Con | 0.4 | –
H358, siRNA knockdown (Con = control): TEAD1234_si1 | 0.366 | –
H358, siRNA knockdown (Con = control): TEAD1234_si2 | 0.228 | –
H358, siRNA knockdown (Con = control): YAP_WWTR1_si1 | 0.183 | –
H358, siRNA knockdown (Con = control): YAP_WWTR1_si2 | 0.135 | –
H1373, siRNA knockdown (Con = control): Con | 1.95 | –
H1373, siRNA knockdown (Con = control): YAP_WWTR1_si1 | 0.58 | –
H1373, siRNA knockdown (Con = control): YAP_WWTR1_si2 | 0.305 | –
H1792, siRNA knockdown (Con = control): Con | 1.96 | –
H1792, siRNA knockdown (Con = control): YAP_WWTR1_si1 | 0.59 | –
H1792, siRNA knockdown (Con = control): YAP_WWTR1_si2 | 0.472 | –
H2030, siRNA knockdown (Con = control): Con | 9.87 | –
H2030, siRNA knockdown (Con = control): TEAD1234_si1 | 1.05 | –
H2030, siRNA knockdown (Con = control): TEAD1234_si2 | 0.237 | –
KYSE410, siRNA knockdown (Con = control): Con | 4.24 | –
KYSE410, siRNA knockdown (Con = control): TEAD1234_si1 | 1.05 | –
KYSE410, siRNA knockdown (Con = control): TEAD1234_si2 | 1.07 | –
KYSE410, siRNA knockdown (Con = control): YAP_WWTR1_si1 | 1.68 | –
KYSE410, siRNA knockdown (Con = control): YAP_WWTR1_si2 | 1.19 | –
MIAPACA2, siRNA knockdown (Con = control): Con | 10.4 | –
MIAPACA2, siRNA knockdown (Con = control): TEAD1234_si1 | 5.67 | –
MIAPACA2, siRNA knockdown (Con = control): TEAD1234_si2 | 5.42 | –
MIAPACA2, siRNA knockdown (Con = control): YAP_WWTR1_si1 | 4.42 | –
MIAPACA2, siRNA knockdown (Con = control): YAP_WWTR1_si2 | 6.97 | –
SW1573 [1], siRNA knockdown (Con = control): Con | 13.2 | –
SW1573 [1], siRNA knockdown (Con = control): TEAD1234_si1 | 0.342 | –
SW1573 [1], siRNA knockdown (Con = control): TEAD1234_si2 | 0.164 | –
SW1573 [1], siRNA knockdown (Con = control): YAP_WWTR1_si1 | 0.1 | –
SW1573 [1], siRNA knockdown (Con = control): YAP_WWTR1_si2 | 0.132 | –
SW1573 [2], log10 concentration (uM): 0, siRNA knockdown: TEAD1-4 siRNA 1 | – | 0.394
SW1573 [2], log10 concentration (uM): 0, siRNA knockdown: TEAD1-4 siRNA 2 | – | 0.45
SW1573 [2], log10 concentration (uM): 0, siRNA knockdown: YAP/TAZ siRNA 1 | – | 0.174
SW1573 [2], log10 concentration (uM): 0, siRNA knockdown: YAP/TAZ siRNA 2 | – | 0.156
SW1573 [2], log10 concentration (uM): 0, siRNA knockdown: negative control siRNA | – | 0.929
SW1573 [2], log10 concentration (uM): 0.39794, siRNA knockdown: TEAD1-4 siRNA 1 | – | 0.297
SW1573 [2], log10 concentration (uM): 0.39794, siRNA knockdown: TEAD1-4 siRNA 2 | – | 0.376
SW1573 [2], log10 concentration (uM): 0.39794, siRNA knockdown: YAP/TAZ siRNA 1 | – | 0.172
SW1573 [2], log10 concentration (uM): 0.39794, siRNA knockdown: YAP/TAZ siRNA 2 | – | 0.15
SW1573 [2], log10 concentration (uM): 0.39794, siRNA knockdown: negative control siRNA | – | 0.952
SW1573 [2], log10 concentration (uM): 0.69897, siRNA knockdown: TEAD1-4 siRNA 1 | – | 0.273
SW1573 [2], log10 concentration (uM): 0.69897, siRNA knockdown: TEAD1-4 siRNA 2 | – | 0.381
SW1573 [2], log10 concentration (uM): 0.69897, siRNA knockdown: YAP/TAZ siRNA 1 | – | 0.186
SW1573 [2], log10 concentration (uM): 0.69897, siRNA knockdown: YAP/TAZ siRNA 2 | – | 0.175
SW1573 [2], log10 concentration (uM): 0.69897, siRNA knockdown: negative control siRNA | – | 0.952
SW1573 [2], log10 concentration (uM): 1, siRNA knockdown: TEAD1-4 siRNA 1 | – | 0.189
SW1573 [2], log10 concentration (uM): 1, siRNA knockdown: TEAD1-4 siRNA 2 | – | 0.351
SW1573 [2], log10 concentration (uM): 1, siRNA knockdown: YAP/TAZ siRNA 1 | – | 0.2
SW1573 [2], log10 concentration (uM): 1, siRNA knockdown: YAP/TAZ siRNA 2 | – | 0.182
SW1573 [2], log10 concentration (uM): 1, siRNA knockdown: negative control siRNA | – | 0.94
SW1573 [2], log10 concentration (uM): 1.301029996, siRNA knockdown: TEAD1-4 siRNA 1 | – | 0.0763
SW1573 [2], log10 concentration (uM): 1.301029996, siRNA knockdown: TEAD1-4 siRNA 2 | – | 0.233
SW1573 [2], log10 concentration (uM): 1.301029996, siRNA knockdown: YAP/TAZ siRNA 1 | – | 0.136
SW1573 [2], log10 concentration (uM): 1.301029996, siRNA knockdown: YAP/TAZ siRNA 2 | – | 0.139
SW1573 [2], log10 concentration (uM): 1.301029996, siRNA knockdown: negative control siRNA | – | 0.464
SW1573 [2], log10 concentration (uM): -0.30103, siRNA knockdown: TEAD1-4 siRNA 1 | – | 0.413
SW1573 [2], log10 concentration (uM): -0.30103, siRNA knockdown: TEAD1-4 siRNA 2 | – | 0.47
SW1573 [2], log10 concentration (uM): -0.30103, siRNA knockdown: YAP/TAZ siRNA 1 | – | 0.236
SW1573 [2], log10 concentration (uM): -0.30103, siRNA knockdown: YAP/TAZ siRNA 2 | – | 0.209
SW1573 [2], log10 concentration (uM): -0.30103, siRNA knockdown: negative control siRNA | – | 0.908

— the supplement of paper PMC11665569
